Experimental data published in patent publication US20150051232A1, “USE OF (RS)-S-CYCLOPROPYL-S-(4--5-(TRIFLUOROMETHYL)PYRIMIDIN-2-YL]AMINO}PHENYL)SULFOXIMIDE FOR TREATING SPECIFIC TUMOURS” (Bayer Intellectual Property GmbH, priority 2012, published 2015).

What was measured:
Format in all cases: in vivo, humans
mesotheliomas = assay: Clinical trial in patients with mesotheliomas; conditions: 3 days of treatment and 4 days of non-treatment; for duration of treatment (until disease progression) / tumour response according to RECIST 1.1: oral solution
Excerpt: Patient 1010, epithelioid mesothelioma, progressive disease on study enrollment, systemic pre-therapies with Alimta and cisplatin, gemcitabine, doxorubicin, dekabine
Patient 1016, epithelioid mesothelioma, stage IV, progressive disease on study enrollment, systemic pre-therapies with Alimta and cisplatin, Alimta and carboplatin, Alimta and carboplatin and Avastin, Avastin, Alimta, gemcitabine
Patient 1023, pleuramesothelioma, stage IV, progressive disease on study enrollment, systemic pre-therapies with cisplatin and Alimta
Patient 1024, pleuramesothelioma, stage IV, progressive disease on study enrollment, systemic pre-therapies with cisplatin and Alimta and Avastin, Avastin, carboplatin and Alimta and doxorubicin and dekapine
Oral solution in two dose strengths, ingredients micronized BAY 1000394 (0.2 mg/ml and 4.8 mg/ml), Levomenthol (synonym: 1-menthol, flavouring), macrogol (400) (synonym: polyethylene glycol (400), solubilizer), polysorbate 20 (surfactant)
Dosage twice a day 1.2 mg (patient 1010), 4.8 mg (patient 1016) and 9.6 mg (patients 1023 and 1024), administration protocol 3 days of treatment and 4 days of non-treatment, long-term treatment until disease progression

thyroid cancer = assay: Clinical trial in patients with thyroid cancer
Experimental: Patient 2006, clinical study 14856, person, papillary thyroid cancer stage IV, progressive disease on study enrollment, systemic pre-therapies with 17-AAG, Sutent, sorafenib, erlotinib and temsirolimus
Patient 1030, clinical study 14484, person, thyroid cancer stage IV, progressive disease on study enrollment, systemic pre-therapies with Adriamycin and cisplatin/carboplatin, carboplatin and Taxol, Nexavar, Sutent
Patient 2006: oral solution, ingredients micronized BAY 1000394 (0.2 mg/ml), levomenthol (synonym: 1-menthol, flavouring) macrogol (400) (synonym: polyethylene glycol (400), solubilizer), polysorbate 20 (surfactant)
Patient 1030: tablet, ingredients BAY 1000394, micronized, 5 mg/tablet, granulated mannitol (filler), microcrystalline cellulose (filler), croscarmellose (disintegrant), magnesium stearate (additive for pressing), red lacquer (coating)
Patient 2006: dosage twice a day 0.3 mg, administration protocol 28 days of treatment and 14 days of non-treatment, long-term treatment until disease progression
Patient 1030: dosage 5 mg in the morning, 10 mg in the evening, administration protocol 3 days of treatment and 4 days of non-treatment, long-term treatment until disease progression

[1] = system: squamous cell carcinoma of the oesophagus; assay: Clinical trial in a patient with squamous cell carcinomas of the oesophagus; conditions: 28 days of treatment and 14 days of non-treatment
Experimental: Patient 3002, squamous cell carcinoma of the oesophagus stage IV, progressive disease on study enrollment, systemic pre-therapy with cisplatin and Xeloda
Oral solution, ingredients micronized BAY 1000394 (0.2 mg/ml), levomenthol (synonym: 1-menthol, flavouring) macrogol (400) (synonym: polyethylene glycol (400), solubilizer), polysorbate 20 (surfactant)
Dosage twice a day 0.5 mg, administration protocol 28 days of treatment and 14 days of non-treatment, long-term treatment until disease progression

[2] = system: cholangiocellular carcinoma; assay: Clinical trial in a patient with cholangiocellular carcinoma; conditions: 3 days of treatment and 4 days of non-treatment
Experimental: Patient 1026, cholangiocellular carcinoma stage IV, progressive disease on study enrollment, systemic pre-therapies with cisplatin/oxaliplatin and Gemzar, 5-fluorouracil and folinic acid
tablet, ingredients BAY 1000394, micronized, 5 mg/tablet, granulated mannitol (filler), microcrystalline cellulose (filler), croscarmellose (disintegrant), magnesium stearate (additive for pressing), red lacquer (coating)
Dosage twice a day 5 mg, administration protocol 3 days of treatment and 4 days of non-treatment, long-term treatment until disease progression

[3] = patient 1010, epithelioid mesothelioma, twice a day 1.2 mg
[4] = patient 1016, epithelioid mesothelioma stage IV, twice a day 4.8 mg
[5] = patient 1023, pleuramesothelioma stage IV, twice a day 9.6 mg
[6] = patient 1024, pleuramesothelioma stage IV, twice a day 9.6 mg
[7] = patient 1030, thyroid cancer stage IV, tablet, 5 mg in the morning, 10 mg in the evening, 3 days of treatment and 4 days of non-treatment
[8] = patient 2006, papillary thyroid cancer stage IV, oral solution, twice a day 0.3 mg, 28 days of treatment and 14 days of non-treatment
[9] = patient 3002, squamous cell carcinoma of the oesophagus stage IV, oral solution, twice a day 0.5 mg
[10] = patient 1026, cholangiocellular carcinoma stage IV, tablet, twice a day 5 mg

C[C@@H](O)[C@@H](C)Oc1nc(Nc2ccc(S(=N)(=O)C3CC3)cc2)ncc1C(F)(F)F (mixture of isomers) [Compound A, (RS)—S-cyclopropyl-S-(4-{[4-{[(1R,2R)-2-hydroxy-1-methylpropyl]oxy}-5-(trifluoromethyl)pyrimidin-2-yl]amino}phenyl)sulphoximide]
treatment outcome in mesothelioma patients (mesotheliomas; daily dose of 2.4 mg, 9.6 mg and 19.2 mg divided into two identical dosage units): Disease stabilization | treatment outcome in thyroid cancer patients (thyroid cancer; daily dose of 0.6 mg divided into two identical dosage units, 28 days of treatment and 14 days of non-treatment): Disease stabilization | treatment outcome in thyroid cancer patients (thyroid cancer; daily dose of 15 mg (5 mg in the morning, 10 mg in the evening), 3 days of treatment and 4 days of non-treatment): Disease stabilization | treatment outcome in a patient suffering from squamous cell carcinoma of the oesophagus ([1]; daily dose of 1 mg divided into two identical dosage units): Disease stabilization | treatment outcome in a patient suffering from cholangiocellular carcinoma ([2]; daily dose of 10 mg divided into two identical dosage units): Disease stabilization

C[C@@H](O)[C@@H](C)Oc1nc(Nc2ccc([S@](=N)(=O)C3CC3)cc2)ncc1C(F)(F)F [BAY 1000394, (R)—S-cyclopropyl-S-(4-{[4-{[(1R,2R)-2-hydroxy-1-methylpropyl]oxy}-5-(trifluoromethyl)pyrimidin-2-yl]amino}phenyl)sulphoximide]
duration of treatment (until disease progression) (mesotheliomas; [3]): about 4 months | tumour response according to RECIST 1.1 (mesotheliomas; [3]): disease stabilization | duration of treatment (until disease progression) (mesotheliomas; [4]): more than 3 months | tumour response according to RECIST 1.1 (mesotheliomas; [4]): disease stabilization | duration of treatment (until disease progression) (mesotheliomas; [5]): about 2 months | tumour response according to RECIST 1.1 (mesotheliomas; [5]): disease stabilization | duration of treatment (until disease progression) (mesotheliomas; [6]): about 2 months | tumour response according to RECIST 1.1 (mesotheliomas; [6]): disease stabilization | duration of treatment (until disease progression) (thyroid cancer; [7]): more than 3 months | tumour response according to RECIST 1.1 (thyroid cancer; [7]): disease stabilization | duration of treatment (until disease progression) (thyroid cancer; [8]): about 2 months | tumour response according to RECIST 1.1 (thyroid cancer; [8]): disease stabilization | duration of treatment (until disease progression) [1, 9]: more than 2 months | tumour response according to RECIST 1.1 [1, 9]: disease stabilization | duration of treatment (until disease progression) [2, 10]: more than 4 months | tumour response according to RECIST 1.1 [2, 10]: disease stabilization
